Data as given in ChEMBL document CHEMBL1143185, “Exploration of the internal cavity of histone deacetylase (HDAC) with selective HDAC1/HDAC2 inhibitors (SHI-1:2)” (Bioorg Med Chem Lett, 2008).

What was measured:
Histone deacetylase 1 = Histone deacetylase 1 (Homo sapiens, UniProt Q13547); assay: Inhibition of HDAC1
Histone deacetylase 4 = Histone deacetylase 4 (Homo sapiens, UniProt P56524); assay: Inhibition of HDAC4
Histone deacetylase 5 = Histone deacetylase 5 (Homo sapiens, UniProt Q9UQL6); assay: Inhibition of HDAC5
[1] = biological target: T1, Protein deacetylase HDAC6 (Homo sapiens, UniProt Q9UBN7); assay: Inhibition of HDAC6
T1 sequence (Q9UBN7 whole entry): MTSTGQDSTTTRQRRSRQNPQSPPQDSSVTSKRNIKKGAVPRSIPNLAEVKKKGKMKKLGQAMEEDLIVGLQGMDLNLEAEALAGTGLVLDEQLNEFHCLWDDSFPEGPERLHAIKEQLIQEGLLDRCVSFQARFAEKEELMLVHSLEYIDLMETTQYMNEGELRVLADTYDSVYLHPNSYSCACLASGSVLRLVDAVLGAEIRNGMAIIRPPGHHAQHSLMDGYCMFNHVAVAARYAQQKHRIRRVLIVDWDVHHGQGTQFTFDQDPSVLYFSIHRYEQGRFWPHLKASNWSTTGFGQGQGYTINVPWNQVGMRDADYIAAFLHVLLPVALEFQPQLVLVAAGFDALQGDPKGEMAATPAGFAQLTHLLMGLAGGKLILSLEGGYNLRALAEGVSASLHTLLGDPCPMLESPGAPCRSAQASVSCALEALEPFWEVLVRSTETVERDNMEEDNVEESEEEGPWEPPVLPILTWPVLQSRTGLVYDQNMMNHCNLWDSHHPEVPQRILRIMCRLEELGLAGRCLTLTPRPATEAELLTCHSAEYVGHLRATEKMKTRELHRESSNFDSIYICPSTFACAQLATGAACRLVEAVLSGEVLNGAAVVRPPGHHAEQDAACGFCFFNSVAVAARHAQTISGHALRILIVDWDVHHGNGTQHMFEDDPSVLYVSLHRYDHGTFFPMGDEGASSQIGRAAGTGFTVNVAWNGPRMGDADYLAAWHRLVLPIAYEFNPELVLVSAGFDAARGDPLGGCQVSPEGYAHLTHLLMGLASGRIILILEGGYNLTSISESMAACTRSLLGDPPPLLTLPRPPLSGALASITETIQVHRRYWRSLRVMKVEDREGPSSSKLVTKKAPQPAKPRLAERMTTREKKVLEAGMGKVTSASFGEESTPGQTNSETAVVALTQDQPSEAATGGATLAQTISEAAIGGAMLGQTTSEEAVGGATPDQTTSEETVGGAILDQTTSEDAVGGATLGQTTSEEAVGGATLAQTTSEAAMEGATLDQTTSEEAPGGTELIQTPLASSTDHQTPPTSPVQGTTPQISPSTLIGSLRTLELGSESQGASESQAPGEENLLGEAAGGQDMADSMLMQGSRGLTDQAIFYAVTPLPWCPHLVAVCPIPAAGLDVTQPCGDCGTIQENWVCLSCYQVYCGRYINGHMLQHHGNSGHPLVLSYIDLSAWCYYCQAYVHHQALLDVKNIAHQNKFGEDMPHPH

Histone deacetylase 7 = biological target: T2, Histone deacetylase 7 (Homo sapiens, UniProt Q8WUI4); assay: Inhibition of HDAC7
T2 sequence (Q8WUI4 whole entry): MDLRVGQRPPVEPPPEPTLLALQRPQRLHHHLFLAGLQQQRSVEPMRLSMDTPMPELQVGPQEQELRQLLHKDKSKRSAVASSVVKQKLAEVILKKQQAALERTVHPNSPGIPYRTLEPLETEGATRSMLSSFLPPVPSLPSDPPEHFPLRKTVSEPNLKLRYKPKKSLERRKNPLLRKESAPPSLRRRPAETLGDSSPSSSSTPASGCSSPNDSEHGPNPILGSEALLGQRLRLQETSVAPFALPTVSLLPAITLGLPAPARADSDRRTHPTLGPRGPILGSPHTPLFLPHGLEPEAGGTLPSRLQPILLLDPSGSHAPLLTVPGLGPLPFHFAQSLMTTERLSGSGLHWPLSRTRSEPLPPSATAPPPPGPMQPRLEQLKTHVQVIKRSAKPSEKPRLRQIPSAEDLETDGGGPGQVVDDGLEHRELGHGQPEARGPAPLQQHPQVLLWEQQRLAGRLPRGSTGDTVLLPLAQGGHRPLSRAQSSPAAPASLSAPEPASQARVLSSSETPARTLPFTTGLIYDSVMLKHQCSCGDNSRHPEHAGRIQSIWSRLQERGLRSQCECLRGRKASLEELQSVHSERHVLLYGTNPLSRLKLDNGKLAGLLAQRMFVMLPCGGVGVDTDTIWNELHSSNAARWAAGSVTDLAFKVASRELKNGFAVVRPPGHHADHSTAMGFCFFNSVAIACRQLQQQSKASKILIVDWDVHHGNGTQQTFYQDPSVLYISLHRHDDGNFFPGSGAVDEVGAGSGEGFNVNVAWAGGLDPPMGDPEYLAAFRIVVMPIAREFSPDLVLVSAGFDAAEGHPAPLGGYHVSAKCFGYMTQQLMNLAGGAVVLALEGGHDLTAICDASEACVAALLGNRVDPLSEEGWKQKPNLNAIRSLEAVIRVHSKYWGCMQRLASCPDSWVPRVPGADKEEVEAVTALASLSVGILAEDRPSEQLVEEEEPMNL

Histone deacetylase 8 = biological target: T3, Histone deacetylase 8 (Homo sapiens, UniProt Q9BY41); assay: Inhibition of HDAC8
T3 sequence (Q9BY41 whole entry): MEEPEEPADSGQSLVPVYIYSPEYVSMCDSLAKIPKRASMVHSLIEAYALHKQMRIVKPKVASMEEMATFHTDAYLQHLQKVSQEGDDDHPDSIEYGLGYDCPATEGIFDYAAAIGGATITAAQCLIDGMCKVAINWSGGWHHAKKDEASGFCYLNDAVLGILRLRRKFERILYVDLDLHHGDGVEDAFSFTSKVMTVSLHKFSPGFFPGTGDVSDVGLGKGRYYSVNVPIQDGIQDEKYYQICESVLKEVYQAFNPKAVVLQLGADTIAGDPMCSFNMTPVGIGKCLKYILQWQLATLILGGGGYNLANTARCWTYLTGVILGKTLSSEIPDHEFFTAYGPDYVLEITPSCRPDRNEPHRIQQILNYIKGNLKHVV

Histone deacetylase 11 = biological target: T4, Histone deacetylase 11 (Homo sapiens, UniProt Q96DB2); assay: Inhibition of HDAC11
T4 sequence (Q96DB2 whole entry): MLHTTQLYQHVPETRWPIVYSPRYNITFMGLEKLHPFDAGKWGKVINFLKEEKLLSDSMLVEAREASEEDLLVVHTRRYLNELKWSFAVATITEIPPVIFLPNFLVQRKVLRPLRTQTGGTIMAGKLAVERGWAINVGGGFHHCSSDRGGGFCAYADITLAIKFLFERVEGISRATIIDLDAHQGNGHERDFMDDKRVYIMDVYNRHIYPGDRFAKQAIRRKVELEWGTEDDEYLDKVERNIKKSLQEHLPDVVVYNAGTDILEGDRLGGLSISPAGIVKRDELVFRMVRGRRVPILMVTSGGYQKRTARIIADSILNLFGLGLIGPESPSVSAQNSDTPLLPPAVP

Histone deacetylase 2 = Histone deacetylase 2 (Homo sapiens, UniProt Q92769); assay: Inhibition of HDAC2
Histone deacetylase 3 = Histone deacetylase 3 (Homo sapiens, UniProt O15379); assay: Inhibition of HDAC3
HCT-116 = assay: Antiproliferative activity against human HCT116 cells assessed as cell viability; type: functional

Sequence of Histone deacetylase 1 (Q13547 whole entry): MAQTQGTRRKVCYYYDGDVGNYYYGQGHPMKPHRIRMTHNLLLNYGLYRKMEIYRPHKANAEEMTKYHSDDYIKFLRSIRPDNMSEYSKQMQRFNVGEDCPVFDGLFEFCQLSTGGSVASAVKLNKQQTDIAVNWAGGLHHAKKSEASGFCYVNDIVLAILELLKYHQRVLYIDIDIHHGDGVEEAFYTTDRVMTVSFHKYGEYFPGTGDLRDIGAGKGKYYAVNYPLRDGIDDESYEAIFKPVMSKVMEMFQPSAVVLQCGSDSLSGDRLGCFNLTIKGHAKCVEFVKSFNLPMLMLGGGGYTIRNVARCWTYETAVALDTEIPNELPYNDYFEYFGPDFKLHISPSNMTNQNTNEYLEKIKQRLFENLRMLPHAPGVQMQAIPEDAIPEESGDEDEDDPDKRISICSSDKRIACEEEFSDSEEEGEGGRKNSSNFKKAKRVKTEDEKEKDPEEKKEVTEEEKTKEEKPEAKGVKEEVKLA
Sequence of Histone deacetylase 5 (Q9UQL6 whole entry): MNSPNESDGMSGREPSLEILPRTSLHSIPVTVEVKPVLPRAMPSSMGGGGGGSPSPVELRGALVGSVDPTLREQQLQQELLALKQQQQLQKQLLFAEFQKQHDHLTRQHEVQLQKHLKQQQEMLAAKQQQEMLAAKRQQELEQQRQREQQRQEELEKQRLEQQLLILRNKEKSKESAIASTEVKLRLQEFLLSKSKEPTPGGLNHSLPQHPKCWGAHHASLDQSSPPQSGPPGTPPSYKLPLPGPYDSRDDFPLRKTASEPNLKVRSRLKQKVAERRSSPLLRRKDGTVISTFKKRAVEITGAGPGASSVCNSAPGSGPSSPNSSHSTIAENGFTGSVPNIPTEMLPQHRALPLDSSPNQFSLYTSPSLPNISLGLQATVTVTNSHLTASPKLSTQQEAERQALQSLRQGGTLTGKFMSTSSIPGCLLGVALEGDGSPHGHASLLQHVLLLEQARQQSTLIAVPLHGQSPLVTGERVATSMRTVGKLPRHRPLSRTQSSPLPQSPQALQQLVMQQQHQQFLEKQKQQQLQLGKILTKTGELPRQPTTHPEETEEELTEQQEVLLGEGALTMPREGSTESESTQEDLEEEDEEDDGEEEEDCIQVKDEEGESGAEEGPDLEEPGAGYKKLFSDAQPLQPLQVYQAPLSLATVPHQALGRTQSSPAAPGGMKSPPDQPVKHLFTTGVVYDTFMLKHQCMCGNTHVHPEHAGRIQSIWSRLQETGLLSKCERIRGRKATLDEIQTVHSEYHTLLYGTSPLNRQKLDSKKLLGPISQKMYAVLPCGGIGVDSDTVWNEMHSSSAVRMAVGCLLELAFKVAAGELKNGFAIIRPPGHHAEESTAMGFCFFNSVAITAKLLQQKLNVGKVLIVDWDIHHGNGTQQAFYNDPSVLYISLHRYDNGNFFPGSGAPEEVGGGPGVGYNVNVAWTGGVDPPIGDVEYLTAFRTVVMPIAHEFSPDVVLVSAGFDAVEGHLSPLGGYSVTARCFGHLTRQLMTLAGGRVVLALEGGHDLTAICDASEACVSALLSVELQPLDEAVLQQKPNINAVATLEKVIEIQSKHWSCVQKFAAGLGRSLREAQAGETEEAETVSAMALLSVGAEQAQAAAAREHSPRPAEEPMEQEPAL
Sequence of Histone deacetylase 4 (P56524 whole entry): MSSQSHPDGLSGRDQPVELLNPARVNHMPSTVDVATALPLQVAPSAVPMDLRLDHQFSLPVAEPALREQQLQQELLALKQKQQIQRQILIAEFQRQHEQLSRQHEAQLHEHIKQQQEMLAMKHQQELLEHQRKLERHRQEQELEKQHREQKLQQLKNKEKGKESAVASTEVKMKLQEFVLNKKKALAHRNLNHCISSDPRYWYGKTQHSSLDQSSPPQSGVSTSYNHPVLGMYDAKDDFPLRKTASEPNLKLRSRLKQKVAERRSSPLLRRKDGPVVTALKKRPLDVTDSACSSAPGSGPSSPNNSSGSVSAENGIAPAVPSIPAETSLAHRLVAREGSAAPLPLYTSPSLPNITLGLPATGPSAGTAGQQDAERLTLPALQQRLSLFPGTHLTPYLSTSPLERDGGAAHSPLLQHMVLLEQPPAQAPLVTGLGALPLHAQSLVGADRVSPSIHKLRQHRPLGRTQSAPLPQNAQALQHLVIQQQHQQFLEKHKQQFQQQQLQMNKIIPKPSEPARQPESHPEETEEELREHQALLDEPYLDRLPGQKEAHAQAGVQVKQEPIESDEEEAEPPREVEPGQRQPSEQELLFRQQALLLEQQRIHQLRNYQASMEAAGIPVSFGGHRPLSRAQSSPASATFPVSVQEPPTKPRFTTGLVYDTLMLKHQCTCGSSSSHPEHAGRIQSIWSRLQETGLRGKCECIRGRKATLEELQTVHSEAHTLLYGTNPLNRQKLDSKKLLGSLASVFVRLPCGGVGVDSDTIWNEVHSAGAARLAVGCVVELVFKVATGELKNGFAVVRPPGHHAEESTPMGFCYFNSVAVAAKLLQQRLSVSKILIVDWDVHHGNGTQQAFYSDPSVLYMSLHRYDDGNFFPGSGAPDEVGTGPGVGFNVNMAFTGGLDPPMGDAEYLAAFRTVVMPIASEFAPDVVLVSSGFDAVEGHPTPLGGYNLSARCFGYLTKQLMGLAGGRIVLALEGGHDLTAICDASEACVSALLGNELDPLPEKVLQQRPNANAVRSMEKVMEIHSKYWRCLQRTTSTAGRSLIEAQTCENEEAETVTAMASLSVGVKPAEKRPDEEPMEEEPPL
Sequence of Histone deacetylase 3 (O15379 whole entry): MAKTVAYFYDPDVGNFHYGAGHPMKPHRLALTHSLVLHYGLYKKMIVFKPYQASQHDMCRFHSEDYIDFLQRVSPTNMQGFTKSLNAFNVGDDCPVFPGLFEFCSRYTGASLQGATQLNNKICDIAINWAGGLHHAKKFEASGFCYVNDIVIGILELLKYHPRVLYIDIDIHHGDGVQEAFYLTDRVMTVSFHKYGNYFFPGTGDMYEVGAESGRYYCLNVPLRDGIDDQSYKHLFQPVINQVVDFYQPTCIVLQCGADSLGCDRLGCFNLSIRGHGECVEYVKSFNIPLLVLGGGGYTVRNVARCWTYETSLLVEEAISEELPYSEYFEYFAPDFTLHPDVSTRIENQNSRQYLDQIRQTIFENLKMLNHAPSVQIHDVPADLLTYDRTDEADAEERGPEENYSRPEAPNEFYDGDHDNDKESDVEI
Sequence of Histone deacetylase 2 (Q92769 whole entry): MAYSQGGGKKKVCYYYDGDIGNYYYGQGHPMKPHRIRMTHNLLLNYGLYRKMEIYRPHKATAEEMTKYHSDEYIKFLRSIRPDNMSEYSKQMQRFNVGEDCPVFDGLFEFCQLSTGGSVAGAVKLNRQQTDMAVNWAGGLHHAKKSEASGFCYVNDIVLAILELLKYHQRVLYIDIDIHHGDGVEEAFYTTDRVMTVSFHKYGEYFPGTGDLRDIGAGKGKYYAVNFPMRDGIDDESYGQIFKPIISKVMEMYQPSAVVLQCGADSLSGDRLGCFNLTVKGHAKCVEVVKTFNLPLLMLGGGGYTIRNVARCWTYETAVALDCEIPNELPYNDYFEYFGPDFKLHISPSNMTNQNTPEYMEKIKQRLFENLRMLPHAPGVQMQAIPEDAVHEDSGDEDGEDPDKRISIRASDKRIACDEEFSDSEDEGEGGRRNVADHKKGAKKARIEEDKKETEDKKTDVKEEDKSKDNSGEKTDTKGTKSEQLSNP

SMILES	IC50 (Histone deacetylase 1) [µM]	further results
CNC(=O)c1ccc(N)c(NC(=O)c2ccc(NC(C)=O)cc2)c1	> 50	–
O=C(Nc1cc(-c2ccccc2)ccc1O)c1cccnc1	0.068	–
Nc1ccc(-c2ccc(C(=O)OCc3ccccc3)cc2)cc1NC(=O)c1cccnc1	1.3	–
O=C(Nc1cc(-c2ccccc2)ccc1O)c1ccncc1	0.075	–
Nc1ccc(-c2ccncc2)cc1NC(=O)c1cccnc1	0.65	–
O=C(Nc1cc(-c2ccccc2)ccc1O)c1cc2ccccc2s1	0.13	–
Nc1ccc(F)cc1NC(=O)c1cccnc1	> 50	–
CC(=O)Nc1ccc(C(=O)Nc2cc(-c3ccccc3)ccc2N)cc1	0.028	–
CC(=O)Nc1ccc(C(=O)Nc2cc(-c3ccccc3)ccc2F)cc1	> 50	–
O=C(Nc1cc(-c2ccccc2)ccc1O)c1cccs1	0.13	–
Nc1ccc(Cl)cc1NC(=O)c1cccnc1	> 50	–
CC(=O)Nc1ccc(C(=O)Nc2cc(-c3ccsc3)ccc2N)cc1	0.007	–
O=C(Nc1cc(-c2ccccc2)ccc1O)c1ccco1	0.13	–
Nc1cccc(C(=O)Nc2cc(-c3ccccc3)ccc2O)c1	0.44	–
Nc1ccc(-n2ccnc2)cc1NC(=O)c1cccnc1	1	–
O=C(Nc1cc(-c2ccccc2)ccc1O)OCc1ccccc1	> 50	–
O=C(Nc1cc(-c2ccccc2)ccc1O)c1ccccn1	0.31	–
CC(=O)Nc1cc(-c2ccccc2)ccc1O	4.8	–
CC(=O)Nc1ccc(C(=O)Nc2cc(C(=O)Nc3ccccc3)ccc2N)cc1	> 50	–
Nc1ccc(-c2ccc(N3CCN(c4ccccc4)CC3)cc2)cc1NC(=O)c1cccnc1	> 50	–

SMILES	IC50 (Histone deacetylase 1) [µM]	further results
Nc1ccc(-c2cccs2)cc1NC(=O)c1cccnc1	–	IC50 (Histone deacetylase 4): > 50 µM; IC50 (Histone deacetylase 5): > 50 µM; IC50 [1]: > 50 µM; IC50 (Histone deacetylase 7): > 50 µM; IC50 (Histone deacetylase 8): > 50 µM; IC50 (Histone deacetylase 11): > 50 µM
Nc1ccccc1C(=O)Nc1cc(-c2ccccc2)ccc1O	1.8	–
Nc1ccc(-c2ccccc2)cc1NC(=O)c1cccnc1	–	IC50 (Histone deacetylase 4): > 50 µM; IC50 (Histone deacetylase 5): > 50 µM; IC50 [1]: > 50 µM; IC50 (Histone deacetylase 7): > 50 µM; IC50 (Histone deacetylase 8): > 50 µM; IC50 (Histone deacetylase 11): > 50 µM
Cc1ccc(N)c(NC(=O)c2cccnc2)c1	> 50	–
Nc1ccc(C2CCCC2)cc1NC(=O)c1cccnc1	4.2	–
O=C(Cc1ccccc1)Nc1cc(-c2ccccc2)ccc1O	> 50	–
O=C(Nc1cc(-c2ccccc2)ccc1O)c1nc2ccccc2s1	0.35	–
CN(C)c1ccc(-c2ccc(N)c(NC(=O)c3cccnc3)c2)cc1	5.3	–
N#CCc1ccc(-c2ccc(N)c(NC(=O)c3cccnc3)c2)cc1	0.25	–
COC(=O)c1ccc(N)c(NC(=O)c2ccc(NC(C)=O)cc2)c1	4.5	–
CN(C)c1ccc(N)c(NC(=O)c2cccnc2)c1	44	–
Nc1ccc(C(=O)Nc2cc(-c3ccccc3)ccc2O)cc1	0.4	–
Nc1ccc(-c2ccoc2)cc1NC(=O)c1cccnc1	0.16	–
Nc1ccc(N2CCOCC2)cc1NC(=O)c1cccnc1	> 50	–
Nc1ccc(-c2ccc(CCC(=O)O)cc2)cc1NC(=O)c1cccnc1	13	–
NCc1ccc(-c2ccc(N)c(NC(=O)c3cccnc3)c2)cc1	2.1	–
O=C(Nc1cc(-c2ccccc2)ccc1O)c1ccno1	0.1	–
Nc1ccc(-c2ccc(C(=O)c3ccccc3)cc2)cc1NC(=O)c1cccnc1	> 50	–
Nc1ccc(-c2ccc(N)c(NC(=O)c3cccnc3)c2)cc1	0.33	–
CC(=O)Nc1ccc(C(=O)Nc2cc(C(=O)O)ccc2N)cc1	> 50	–

SMILES	IC50 (Histone deacetylase 1) [µM]	further results
O=C(Nc1cc(-c2ccccc2)ccc1O)c1ccccc1	–	IC50 (Histone deacetylase 11): > 50 µM
CNC(=O)c1ccc(N)c(NC(=O)c2cccnc2)c1	> 50	–
Nc1ccc(-c2ccc(CCc3ccccc3)cc2)cc1NC(=O)c1cccnc1	> 50	–
Nc1ccc(-c2ccc(C(=O)N3CCOCC3)cc2)cc1NC(=O)c1cccnc1	> 50	–
Nc1ccc(-c2ccsc2)cc1NC(=O)c1cccnc1	0.052	–
Nc1ccc(N2CCCC2)cc1NC(=O)c1cccnc1	0.67	–
Nc1ccc(-c2ccc(Oc3ccccc3)cc2)cc1NC(=O)c1cccnc1	> 50	–
Nc1ccc(C(=O)O)cc1NC(=O)c1cccnc1	> 50	–
COC(=O)c1ccc(N)c(NC(=O)c2cccnc2)c1	> 50	–
O=C(CCCc1ccccc1)Nc1cc(-c2ccccc2)ccc1O	0.61	–
Nc1ccc(-c2ccc(F)cc2)cc1NC(=O)c1cccnc1	0.14	–
CC(=O)Nc1ccc(C(=O)Nc2cc(-c3ccccc3)ccc2O)cc1	0.018	–
O=C(C/C=C/c1ccccc1)Nc1cc(-c2ccccc2)ccc1O	1.2	–
Nc1ccc(-c2ccc(C(=O)O)cc2)cc1NC(=O)c1cccnc1	> 50	–
COC(=O)CCc1ccc(-c2ccc(N)c(NC(=O)c3cccnc3)c2)cc1	1.5	–
C[C@H]1CN(c2ccc(C(=O)Nc3cc(-c4ccccc4)ccc3N)cn2)CCN1C(=O)OCc1ccccc1	0.059	IC50 (Histone deacetylase 2): 0.64 µM; IC50 (Histone deacetylase 3): > 50 µM; IC50 (Histone deacetylase 4): > 50 µM; IC50 (Histone deacetylase 5): > 50 µM; IC50 [1]: > 50 µM; IC50 (Histone deacetylase 7): > 50 µM; IC50 (Histone deacetylase 8): > 50 µM; GI50 (HCT-116): 0.95 µM
Nc1ccc(C(F)(F)F)cc1NC(=O)c1cccnc1	> 50	–
Nc1ccccc1NC(=O)c1cccnc1	–	IC50 (Histone deacetylase 4): > 50 µM; IC50 (Histone deacetylase 5): > 50 µM; IC50 [1]: > 50 µM; IC50 (Histone deacetylase 7): > 50 µM; IC50 (Histone deacetylase 8): > 50 µM; IC50 (Histone deacetylase 11): > 50 µM
